Source: patent publication US8916717B2, “Dioxaspiroketal derivatives, process for their preparation and uses thereof” (Consiglio Nazionale Delle Ricerche, priority 2006, dated 2014)
Where two headings read alike, the source gives them in different places.

How the values were obtained:
[1] = biological target: Cδ protein kinase (Homo sapiens, UniProt Q05655); settings: Watters et al., 1998; cited from earlier work
[2] = tested on: M14 malignant melanoma cells; test: Cell cycle by flow cytometry analysis (propidium iodide); assay type: cell-based, human; settings: M14, starting from 10 μg/ml dose, after 24 hours of treatment
Description: (§1) For apoptosis and cellular cycle analysis, control or various concentration MS treated cells have been removed from the culture by means of trypsinization, re-suspended in PBS, washed two times with cold PBS and fixed with 50% of acetone and methanol (1:4) in PBS at 4° C. Fixed cells then were washed in PBS and stained with propidium iodide 50 μg/ml (PI) in the presence of RNase A 100 KU/ml.
(§2) Samples have been analyzed using a FACScan cytometer and fluorescence propidium red signals have been registered on linear scale. Cell fluorescence has been analyzed using a FACScan flow cytometer (Becton Dickinson, USA) using a 488 nm emitting argon laser. Data have been analyzed electronically excluding detritus and cell aggregates. In the red fluorescence, that is proportional to the DNA cell content, the apoptotic cells are represented by hypodiploid peak (cells with DNA fractioned content), easy distinguishable from the healthy cell DNA diploid peak. The fraction of the apoptotic cells is calculated integrating the pre-G1 peak. This cell fraction is representative for those having a PI decreasing coloration, considered a marker of DNA fragmentation, phenomenon associated to cell death by apoptosis. The analysis of cell cycle distribution after 24, 48 and 72 hours of MS treatment has been carried out using ModFitLT software (Becton Dickinson Immunocytometry Systems).

[3] = tested on: M14 cell line (melanoma); test: Cell apoptosis and necrosis by flow cytometry analysis; assay type: cell-based, human
Description: as §1
as §2, with “This cell fraction is representative for those having a PI decreasing coloration, considered a marker of DNA fragmentation, phenomenon associated to cell death by apoptosis. The analysis of cell cycle distribution after 24, 48 and 72 hours of MS treatment has been carried out using ModFitLT software (Becton Dickinson Immunocytometry Systems).” left out
For the necrosis evaluation, an aliquot of not fixed cells (1×10^6) was incubated with 40 μg/ml PI for 1.5 hour at 37° C. The samples, directly in their coloring solution, have been then analyzed using FACScan flow. […] Apoptotic cells have been detected by FSC/PI dot plot as PI^dim peak, meanwhile P^− and PI^bright represent viable and necrotic cells, respectively.

[4] = biological target: T1, telomerase (Homo sapiens, UniProt O14746); test: Telomerasic activity (TeloTAGGG Telomerase PCR ELISA) in extracts of treated tumor cells; assay type: cell-based; settings: 48 hours; for telomerase enzymatic activity: 1.25 μg/ml; for inhibition at 12.5 µg/mL / inhibition at 25 µg/mL: read-out: telomerase inhibition in comparison to control
T1 construct: endogenous in cells; host or cells: MCF-7, H-125 and M14 tumour cells
Description: Telomerasic activity was evaluated using TeloTAGGG Telomerase PCR ELISA kit, photometric enzymatic immunoassay from Roche (Mannheim, Germany). At time of the test, frozen pellet was lysed directly in the tests-tube using 80 μl of cold extraction buffer. Telomerase amplification was carried out by PCR (30 cycles, 94° C. 30 sec; 52° C. 30 sec; 72° C. 45 sec). Telomerasic activity was determined on the cell extracts according to the protocol recommended by the supplier. Sample absorbance (OD, optical density) was measured at 450 nm in a multi-well plate reader (SpectraCount, Pakard, Meriden, Conn., USA). In order to evaluate telomerasic activity, MCF-7, H-125 and M14 tumor cells were treated for 48 hours with serial doses of methyl-spirane (from 1.25 μg/ml to 50 μg/ml) as above described. Subsequently, the cells have been detached from culture plates by trypsinization, centrifuged, pelletized, and stored at −80° C. until the use.
As to telomerase, the cells have been exposed in vitro at 1.25, 12.5, 25, 50 μg/ml of methyl-spirane and evaluated for telomerasic activity (TLMA) using ELISA assay, 48 hours after the treatment. […] Particularly, in the FIG. 10, panels A-C, the effects at various concentrations (1.25, 12.5, 25, 50) of methyl-spirane on MCF-7, H-125 and M14 cell, lines after 48 hours of treatment are shown.

[5] = tested on: peripheral blood lymphocytes (PBL) from healthy donors; test: Toxicity on not tumor healthy human cells, supravital propidium iodide method; assay type: cell-based; settings: for % apoptotic / % necrotic / % viable: PBL, 48 hours
Description: […] After 24 and 48 hours of culture, treated lymphocytes have been analyzed using supravital propidium iodide method (PI).
IN short this system is based on the use of propidium iodide, a fluorescent marker for the cellular DNA that normally penetrates only into the fixed or permeable made cells. PI supravital method is based on the principle that supravital exposure to propidium (high concentration of propidium for some hours at 37° C.) of not previously permeable made cells identifies in the population apoptotic cells clearly distinguishing them from necrotic or viable ones. Cells labeled with 40 μg/ml of propidium iodide directly in culture plates, are incubated at 37° for 1 hour and 30 minutes and analyzed using the flow cytometer.

[6] = tested on: MCF-7 cells; test: Cell proliferation and viability determination (trypan blue dye exclusion cell counts); assay type: cell-based, human; settings: 1.25 μg/ml
Description: The study has been carried out using representative tumor cell lines with different histological origin: MCF-7 breast carcinoma (human), M14 (human) and B16 (murine) melanomas, H125 (human) pulmonary carcinoma, HT-29 (human) colon carcinoma, HL-60 (human) promyelocytic leukemia.
All cell lines have been cultured in RPMI-1640 (Hyclone Europe, Cramlington, UK) medium supplemented with 10% of heat inactivated (56° C., 30 minutes) bovine fetal serum (Hyclone Laboratories, Logan, Utah), 2 mM L-glutamine and antibiotics (Life Technologies Ltd., Paisley, Scotland) (complete medium, CM). Cells have been stored at 37° C. in humidified atmosphere with 5% CO2.
Cell suspensions (HL-60) have been harvested and counted. Plastic adherent cells, in semi-confluence condition, have been detached by a short exposure at 0.025% trypsin with 0.01% EDTA and counted.
All used tumor cells have been harvested, suspended in CM and seeded in 24-well plates at 10^5 cell concentration in a final volume of 2 ml/well. For adherent cells a pre-incubation for 18 hours has been carried out in order to promote the adhesion to plastic. […] The cell proliferation, viability and death have been determined by means of cell counts in trypan blue (dye exclusion test) using a hemocytometer.

[7] = tested on: 60 haematological and epithelial human cancer cell lines of NCI panel; settings: 60 human cancer cell lines, NCI panel (Uckun et al., 2000); cited from earlier work

T1 sequence (O14746 whole entry): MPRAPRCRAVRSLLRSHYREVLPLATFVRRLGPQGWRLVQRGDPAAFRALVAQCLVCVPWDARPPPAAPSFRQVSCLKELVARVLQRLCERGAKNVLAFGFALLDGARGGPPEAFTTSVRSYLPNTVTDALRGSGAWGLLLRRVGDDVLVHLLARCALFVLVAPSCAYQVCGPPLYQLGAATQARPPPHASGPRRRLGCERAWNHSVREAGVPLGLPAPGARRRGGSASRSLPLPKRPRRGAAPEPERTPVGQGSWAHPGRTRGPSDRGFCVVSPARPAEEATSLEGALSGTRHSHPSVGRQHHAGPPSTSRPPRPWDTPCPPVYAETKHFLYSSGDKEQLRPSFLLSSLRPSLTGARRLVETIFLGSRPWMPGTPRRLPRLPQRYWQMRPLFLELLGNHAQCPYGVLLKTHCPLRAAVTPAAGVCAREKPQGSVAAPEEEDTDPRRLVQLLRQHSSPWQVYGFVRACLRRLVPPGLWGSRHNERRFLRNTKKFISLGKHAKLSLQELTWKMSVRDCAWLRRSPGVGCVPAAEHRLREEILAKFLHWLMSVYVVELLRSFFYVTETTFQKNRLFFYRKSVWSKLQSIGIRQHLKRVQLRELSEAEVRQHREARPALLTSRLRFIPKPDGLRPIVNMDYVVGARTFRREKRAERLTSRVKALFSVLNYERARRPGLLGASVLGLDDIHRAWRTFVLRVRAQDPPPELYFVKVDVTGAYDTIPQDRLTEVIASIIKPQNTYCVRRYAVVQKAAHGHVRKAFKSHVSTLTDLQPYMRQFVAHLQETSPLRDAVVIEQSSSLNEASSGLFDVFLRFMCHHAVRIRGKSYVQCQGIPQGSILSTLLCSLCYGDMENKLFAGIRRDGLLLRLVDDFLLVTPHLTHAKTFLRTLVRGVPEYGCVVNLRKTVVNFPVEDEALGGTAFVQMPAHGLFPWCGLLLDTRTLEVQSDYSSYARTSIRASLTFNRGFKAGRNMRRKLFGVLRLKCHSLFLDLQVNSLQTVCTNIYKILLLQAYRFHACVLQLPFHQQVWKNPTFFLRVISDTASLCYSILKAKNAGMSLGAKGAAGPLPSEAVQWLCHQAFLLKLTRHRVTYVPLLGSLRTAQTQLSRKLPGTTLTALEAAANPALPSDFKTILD
Sequence of Cδ protein kinase (Q05655 whole entry): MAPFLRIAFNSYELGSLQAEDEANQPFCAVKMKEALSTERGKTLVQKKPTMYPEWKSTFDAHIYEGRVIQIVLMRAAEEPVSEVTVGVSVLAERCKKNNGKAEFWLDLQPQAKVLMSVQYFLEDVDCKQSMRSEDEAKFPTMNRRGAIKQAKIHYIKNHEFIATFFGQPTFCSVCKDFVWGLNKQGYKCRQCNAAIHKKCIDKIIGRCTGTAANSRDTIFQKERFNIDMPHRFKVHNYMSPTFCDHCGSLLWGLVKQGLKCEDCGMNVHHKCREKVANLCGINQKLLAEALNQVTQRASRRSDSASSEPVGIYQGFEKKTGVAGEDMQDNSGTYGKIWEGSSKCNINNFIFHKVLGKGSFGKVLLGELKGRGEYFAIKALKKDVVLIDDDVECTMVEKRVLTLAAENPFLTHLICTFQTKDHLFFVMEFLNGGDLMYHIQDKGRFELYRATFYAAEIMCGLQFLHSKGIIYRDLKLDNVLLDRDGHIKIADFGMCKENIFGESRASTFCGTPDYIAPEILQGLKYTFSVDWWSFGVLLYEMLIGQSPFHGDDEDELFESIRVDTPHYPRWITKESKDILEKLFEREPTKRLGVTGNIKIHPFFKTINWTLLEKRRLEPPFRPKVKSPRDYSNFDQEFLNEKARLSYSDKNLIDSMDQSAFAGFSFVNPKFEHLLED

Molecule: C/C=C/C(=O)CC1CCC(C)C(CC(=O)NCC(O)C(C)C(=O)NCCCC2OC3(CCC2C)COCC(CCC(C)/C=C(\C)C(C)O)C3)O1 (centres unmarked) [B[…]]
- activation of Cδ protein kinase (PKCs isoform) [1]: specific activator

Molecule: CC1CCCC2(OC(O)C=CC2=O)O1 (centres unmarked) [methyl-spirane, 1,7-dioxaspiro[5,5]-8-methyl-undecen-3-en-5-oxa-2-ol]
- effect on cell cycle (G1 step) [2]: increment of the G1 step
- apoptosis induction ([3]; M14, 25 μg/ml, after 24 hours): apoptosis is already observed
- concentration-dependent increase of apoptosis ([3]; M14, concentrations higher than 1.25 μg/ml, after 72 hours of treatment): 30-50%
- telomerase enzymatic activity ([4]; H-125): very scarcely influenced
- telomerase enzymatic activity ([4]; MCF-7): very scarcely influenced
- inhibition at 12.5 µg/mL ([4]; 12.5 μg/ml, M14): 61%
- inhibition at 25 µg/mL ([4]; 25 μg/ml, M14): 75%
- inhibition at 50 µg/mL ([4]; 50 μg/ml, two cell lines not named (of MCF-7, H-125, M14)): 80%
- telomerasic activity (TLMA) ([4]; 1.25, 12.5, 25, 50 μg/ml, all the examined cell lines): concentration-dependent reduction
- inhibition at 12.5 µg/mL ([4]; MCF7, 12.5 μg/ml, MCF-7): 43%
- inhibition at 25 µg/mL ([4]; MCF7, 25 μg/ml, MCF-7): 64%
- inhibition at 12.5 µg/mL ([4]; NCI-H125, 12.5 μg/ml, H-125): 50%
- inhibition at 25 µg/mL ([4]; NCI-H125, 25 μg/ml, H-125): 68%
- % apoptotic ([5]; 3.15 μg/ml): 2.5%
- % necrotic ([5]; 3.15 μg/ml): 16%
- % viable ([5]; 3.15 μg/ml): 81.5%
- % apoptotic ([5]; 6.25 μg/ml): 6.4%
- % necrotic ([5]; 6.25 μg/ml): 15.6%
- % viable ([5]; 6.25 μg/ml): 78%
- % apoptotic ([5]; 12.5 μg/ml): 30.1%
- % necrotic ([5]; 12.5 μg/ml): 40.0%
- % viable ([5]; 12.5 μg/ml): 29.7%
- % apoptotic ([5]; 25 μg/ml): 33.1%
- % necrotic ([5]; 25 μg/ml): 56.6%
- % viable ([5]; 25 μg/ml): 10.0%
- % apoptotic ([5]; 50 μg/ml): 21.7%
- % necrotic ([5]; 50 μg/ml): 70.0%
- % viable ([5]; 50 μg/ml): 8.2%
- % apoptotic ([5]; 100 μg/ml): 15.0%
- % necrotic ([5]; 100 μg/ml): 84.0%
- % viable ([5]; 100 μg/ml): 1.0%
- necrosis with respect to the control on human lymphocytes ([5]; low concentrations (for example, 1.25 μg/ml)): no increase of necrosis
- effect on tumour cell growth in vitro [6]: inhibiting effects

Molecule: spongistatin 1
- cytotoxicity IC50 [7]: sub-nanomolar
